How the values were obtained:
5-HT1A receptor = experiment: In vitro receptor binding, 5-HT1A
Experimental: In vitro IC50 test values for binding to the 5-HT1A receptor were determined for representative compounds of Formula I by the method of S. J. Peroutka, Brain Research 344, 167 (1985); with only minor modifications. Test IC50 values lower than 100 nM are considered to reflect activity at the 5-HT1A receptor.

[1] = tested on: rat social interaction task (anxiety); experiment: Rat social interaction task (in vivo model of anxiety); conditions: given subcutaneously

IC50 (5-HT1A receptor): 0.0347 µM
Compound: O[C@]1(c2ccc(F)cc2)CC[C@H](N2CCN(Cc3cc(F)ccc3F)CC2)CC1 [Example 36, Z-1-(4-Fluorophenyl)-4-[4-[(2,5-difluorophenyl)methyl]-1-piperazinyl]cyclohexanol]
Rat social interaction task, active doses [1]: 0.01-10 mpk
